Data as given in ChEMBL document CHEMBL3297661, “1-Substituted-5-[(3,5-dinitrobenzyl)sulfanyl]-1H-tetrazoles and their isosteric analogs: A new class of selective antitubercular agents active against drug-susceptible and multidrug-resistant mycobacteria” (Eur J Med Chem, 2014).
pIC50: −log10 of the molar value. Converted amounts (≈) assume the structure as drawn.

Experiments:
Candida albicans [1] = experiment: Antifungal activity against Candida albicans ATCC 44859 after 24 hrs by broth microdilution method; assay type: functional; details: ATCC 44859, 24 h
Candida tropicalis [2] = experiment: Antifungal activity against Candida tropicalis 156 after 24 hrs by broth microdilution method; assay type: functional; details: Candida tropicalis, 156, 24 h
Pichia kudriavzevii [3] = experiment: Antifungal activity against Candida krusei E28 after 24 hrs by broth microdilution method; assay type: functional; details: E28, 24 h
Trichosporon asahii [4] = experiment: Antifungal activity against Trichosporon asahii 1188 after 24 hrs by broth microdilution method; assay type: functional; details: Trichosporon asahii, 1188, 24 h
Aspergillus fumigatus [5] = experiment: Antifungal activity against Aspergillus fumigatus 231 after 24 hrs by broth microdilution method; assay type: functional, organism-based; details: Aspergillus fumigatus, 231, 24 h
Lichtheimia corymbifera [6] = experiment: Antifungal activity against Absidia corymbifera 272 after 24 hrs by broth microdilution method; assay type: functional, organism-based; details: Lichtheimia corymbifera, 272, 24 h
[7] = tested on: Trichophyton mentagrophytes; experiment: Antifungal activity against Trichophyton mentagrophytes 445 after 72 hrs by broth microdilution method; assay type: functional, organism-based; details: Trichophyton mentagrophytes, 445, 72 h
Pseudomonas aeruginosa [8] = experiment: Antibacterial activity against Pseudomonas aeruginosa ATCC 9027 after 48 hrs by broth microdilution method; assay type: functional; details: ATCC 9027, 48 h
Candida albicans [9] = experiment: Antifungal activity against Candida albicans ATCC 44859 after 48 hrs by broth microdilution method; assay type: functional; details: ATCC 44859, 48 h
Candida tropicalis [10] = experiment: Antifungal activity against Candida tropicalis 156 after 48 hrs by broth microdilution method; assay type: functional; details: Candida tropicalis, 156, 48 h
Pichia kudriavzevii [11] = experiment: Antifungal activity against Candida krusei E28 after 48 hrs by broth microdilution method; assay type: functional; details: E28, 48 h
Nakaseomyces glabratus [12] = experiment: Antifungal activity against Candida glabrata 20/I after 24 hrs by broth microdilution method; assay type: functional
Nakaseomyces glabratus [13] = experiment: Antifungal activity against Candida glabrata 20/I after 48 hrs by broth microdilution method; assay type: functional
Trichosporon asahii [14] = experiment: Antifungal activity against Trichosporon asahii 1188 after 48 hrs by broth microdilution method; assay type: functional; details: Trichosporon asahii, 1188, 48 h
Aspergillus fumigatus [15] = experiment: Antifungal activity against Aspergillus fumigatus 231 after 48 hrs by broth microdilution method; assay type: functional, organism-based; details: Aspergillus fumigatus, 231, 48 h
Lichtheimia corymbifera [16] = experiment: Antifungal activity against Absidia corymbifera 272 after 48 hrs by broth microdilution method; assay type: functional, organism-based; details: Lichtheimia corymbifera, 272, 48 h
[17] = tested on: Trichophyton mentagrophytes; experiment: Antifungal activity against Trichophyton mentagrophytes 445 after 120 hrs by broth microdilution method; assay type: functional, organism-based; details: Trichophyton mentagrophytes, 445, 120 h
[18] = tested on: Mycobacterium tuberculosis; experiment: Antimycobacterial activity against Mycobacterium tuberculosis CNCTC My 331/88 after 14 days by micromethod; assay type: functional; details: CNCTC My 331/88, 336 h
[19] = tested on: Mycobacterium tuberculosis; experiment: Antimycobacterial activity against Mycobacterium tuberculosis CNCTC My 331/88 after 21 days by micromethod; assay type: functional; details: CNCTC My 331/88, 504 h
Mycobacterium avium [20] = experiment: Antimycobacterial activity against Mycobacterium avium CNCTC My 330/88 after 14 days by micromethod; assay type: functional; details: CNCTC My 330/88, 336 h
Mycobacterium avium [21] = experiment: Antimycobacterial activity against Mycobacterium avium CNCTC My 330/88 after 21 days by micromethod; assay type: functional; details: CNCTC My 330/88, 504 h
Mycobacterium kansasii [22] = experiment: Antimycobacterial activity against Mycobacterium kansasii CNCTC My 235/80 after 7 days by micromethod; assay type: functional; details: CNCTC My 235/80, 168 h
Mycobacterium kansasii [23] = experiment: Antimycobacterial activity against Mycobacterium kansasii CNCTC My 235/80 after 14 days by micromethod; assay type: functional; details: CNCTC My 235/80, 336 h
Mycobacterium kansasii [24] = experiment: Antimycobacterial activity against Mycobacterium kansasii CNCTC My 235/80 after 21 days by micromethod; assay type: functional; details: CNCTC My 235/80, 504 h
Mycobacterium kansasii [25] = experiment: Antimycobacterial activity against Mycobacterium kansasii 6509/96 after 7 days by micromethod; assay type: functional; details: 6509/96, 168 h
Mycobacterium kansasii [26] = experiment: Antimycobacterial activity against Mycobacterium kansasii 6509/96 after 14 days by micromethod; assay type: functional; details: 6509/96, 336 h
Mycobacterium kansasii [27] = experiment: Antimycobacterial activity against Mycobacterium kansasii 6509/96 after 21 days by micromethod; assay type: functional; details: 6509/96, 504 h
Staphylococcus aureus [28] = experiment: Antibacterial activity against Staphylococcus aureus ATCC 6538 after 24 hrs by broth microdilution method; assay type: functional; details: ATCC 6538, 24 h
Staphylococcus aureus [29] = experiment: Antibacterial activity against Staphylococcus aureus ATCC 6538 after 48 hrs by broth microdilution method; assay type: functional; details: ATCC 6538, 48 h
Staphylococcus aureus [30] = experiment: Antibacterial activity against methicillin-resistant Staphylococcus aureus H 5996/08 after 24 hrs by broth microdilution method; assay type: functional; details: H 5996/08, 24 h
Staphylococcus aureus [31] = experiment: Antibacterial activity against methicillin-resistant Staphylococcus aureus H 5996/08 after 48 hrs by broth microdilution method; assay type: functional; details: H 5996/08, 48 h
[32] = tested on: Staphylococcus epidermidis; experiment: Antibacterial activity against Staphylococcus epidermidis H 6966/08 after 24 hrs by broth microdilution method; assay type: functional; details: H 6966/08, 24 h
[33] = tested on: Staphylococcus epidermidis; experiment: Antibacterial activity against Staphylococcus epidermidis H 6966/08 after 48 hrs by broth microdilution method; assay type: functional; details: H 6966/08, 48 h
Enterococcus faecalis [34] = experiment: Antibacterial activity against Enterococcus faecalis J 14365/08 after 24 hrs by broth microdilution method; assay type: functional; details: J 14365/08, 24 h
Enterococcus faecalis [35] = experiment: Antibacterial activity against Enterococcus faecalis J 14365/08 after 48 hrs by broth microdilution method; assay type: functional; details: J 14365/08, 48 h
Escherichia coli [36] = experiment: Antibacterial activity against Escherichia coli ATCC 8739 after 24 hrs by broth microdilution method; assay type: functional; details: ATCC 8739, ATCC 8739, 24 h
Escherichia coli [37] = experiment: Antibacterial activity against Escherichia coli ATCC 8739 after 48 hrs by broth microdilution method; assay type: functional; details: ATCC 8739, ATCC 8739, 48 h
Klebsiella pneumoniae [38] = experiment: Antibacterial activity against Klebsiella pneumoniae D 11750/08 after 24 hrs by broth microdilution method; assay type: functional; details: D 11750/08, 24 h
Klebsiella pneumoniae [39] = experiment: Antibacterial activity against Klebsiella pneumoniae D 11750/08 after 48 hrs by broth microdilution method; assay type: functional; details: D 11750/08, 48 h
Klebsiella pneumoniae [40] = experiment: Antibacterial activity against extended spectrum beta-lactamase producing Klebsiella pneumoniae J 14368/08 after 24 hrs by broth microdilution method; assay type: functional; details: J 14368/08, 24 h
Klebsiella pneumoniae [41] = experiment: Antibacterial activity against extended spectrum beta-lactamase producing Klebsiella pneumoniae J 14368/08 after 48 hrs by broth microdilution method; assay type: functional; details: J 14368/08, 48 h
Pseudomonas aeruginosa [42] = experiment: Antibacterial activity against Pseudomonas aeruginosa ATCC 9027 after 24 hrs by broth microdilution method; assay type: functional; details: ATCC 9027, 24 h

OC(Cn1cncn1)(Cn1cncn1)c1ccc(F)cc1F [FLUCONAZOLE]
IC80 (Candida albicans [1]): 0.82 µM | IC80 (Candida tropicalis [2]): 1.6 µM | IC80 (Pichia kudriavzevii [3]): 105 µM | IC80 (Trichosporon asahii [4]): 210 µM | pIC50 (Aspergillus fumigatus [5]): < 3.30 | pIC50 (Lichtheimia corymbifera [6]): < 3.30 | pIC50 [7]: 3.98

O=[N+]([O-])c1cc(CSc2cccc[n+]2[O-])cc([N+](=O)[O-])c1
IC95 (Pseudomonas aeruginosa [8]): > 500 µM | IC80 (Candida albicans [1]): > 500 µM | IC80 (Candida albicans [9]): > 500 µM | IC80 (Candida tropicalis [2]): > 500 µM | IC80 (Candida tropicalis [10]): > 500 µM | IC80 (Pichia kudriavzevii [3]): > 500 µM | IC80 (Pichia kudriavzevii [11]): > 500 µM | IC80 (Nakaseomyces glabratus [12]): > 500 µM | IC80 (Nakaseomyces glabratus [13]): > 500 µM | IC80 (Trichosporon asahii [4]): > 500 µM | IC80 (Trichosporon asahii [14]): > 500 µM | pIC50 (Aspergillus fumigatus [5]): < 3.30 | pIC50 (Aspergillus fumigatus [15]): < 3.30 | pIC50 (Lichtheimia corymbifera [6]): < 3.30 | pIC50 (Lichtheimia corymbifera [16]): < 3.30 | pIC50 [7]: < 3.30 | pIC50 [17]: < 3.30 | MIC [18]: 62 µM (≈ 19.1 µg/mL) | MIC [19]: 62 µM (≈ 19.1 µg/mL) | MIC (Mycobacterium avium [20]): 500 µM (≈ 154 µg/mL) | MIC (Mycobacterium avium [21]): 1000 µM (≈ 307 µg/mL) | MIC (Mycobacterium kansasii [22]): 16 µM (≈ 4.92 µg/mL) | MIC (Mycobacterium kansasii [23]): 32 µM (≈ 9.83 µg/mL) | MIC (Mycobacterium kansasii [24]): 32 µM (≈ 9.83 µg/mL) | MIC (Mycobacterium kansasii [25]): 125 µM (≈ 38.4 µg/mL) | MIC (Mycobacterium kansasii [26]): 125 µM (≈ 38.4 µg/mL) | MIC (Mycobacterium kansasii [27]): 125 µM (≈ 38.4 µg/mL) | IC95 (Staphylococcus aureus [28]): > 500 µM | IC95 (Staphylococcus aureus [29]): > 500 µM | IC95 (Staphylococcus aureus [30]): > 500 µM | IC95 (Staphylococcus aureus [31]): > 500 µM | IC95 [32]: > 500 µM | IC95 [33]: > 500 µM | IC95 (Enterococcus faecalis [34]): > 500 µM | IC95 (Enterococcus faecalis [35]): > 500 µM | IC95 (Escherichia coli [36]): > 500 µM | IC95 (Escherichia coli [37]): > 500 µM | IC95 (Klebsiella pneumoniae [38]): > 500 µM | IC95 (Klebsiella pneumoniae [39]): > 500 µM | IC95 (Klebsiella pneumoniae [40]): > 500 µM | IC95 (Klebsiella pneumoniae [41]): > 500 µM | IC95 (Pseudomonas aeruginosa [42]): > 500 µM
